Data published in PubChem BioAssay (NCI).
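Cultured in 96-well plates, cells were exposed to test compound for 48 hours across five concentrations. The concentration for full growth arrest is given as TGI.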

Tests used:
Assay in all cases: NCI tumour cell line growth inhibition, 48 h
EKVX NSCLC = system: EKVX NSCLC
ACHN renal = system: ACHN renal
A549 NSCLC = system: A549 NSCLC
DU-145 prostate = system: DU-145 prostate
CCRF-CEM leukemia = system: CCRF-CEM leukemia
MDA-MB-231 breast = system: MDA-MB-231 breast
SR leukemia = system: SR leukemia
SK-OV-3 ovarian = system: SK-OV-3 ovarian
HCT-116 colon = system: HCT-116 colon
SNB-75 CNS = system: SNB-75 CNS
NCI-H460 lung = system: NCI-H460 lung
MCF7 breast = system: MCF7 breast
SW-620 colon = system: SW-620 colon
IGROV1 ovarian = system: IGROV1 ovarian
T-47D breast = system: T-47D breast
NCI/ADR-RES ovarian = system: NCI/ADR-RES ovarian
SF-295 CNS = system: SF-295 CNS
UACC-62 melanoma = system: UACC-62 melanoma
RXF 393 renal = system: RXF 393 renal
UACC-257 melanoma = system: UACC-257 melanoma
U251 CNS = system: U251 CNS
SN12C renal = system: SN12C renal
MDA-N = system: MDA-N
CAKI-1 renal = system: CAKI-1 renal
MALME-3M melanoma = system: MALME-3M melanoma
SK-MEL-5 melanoma = system: SK-MEL-5 melanoma
SNB-19 CNS = system: SNB-19 CNS
OVCAR-3 ovarian = system: OVCAR-3 ovarian
HT29 colon = system: HT29 colon
M14 melanoma = system: M14 melanoma
OVCAR-5 ovarian = system: OVCAR-5 ovarian
NCI-H23 lung = system: NCI-H23 lung
SF-268 CNS = system: SF-268 CNS
COLO 205 colon = system: COLO 205 colon
HCT-15 colon = system: HCT-15 colon
OVCAR-4 ovarian = system: OVCAR-4 ovarian
NCI-H226 lung = system: NCI-H226 lung
HCC-2998 colon = system: HCC-2998 colon
SK-MEL-28 melanoma = system: SK-MEL-28 melanoma
HOP-92 NSCLC = system: HOP-92 NSCLC
MDA-MB-435 = system: MDA-MB-435
SK-MEL-2 melanoma = system: SK-MEL-2 melanoma
PC-3 prostate = system: PC-3 prostate
786-0 renal = system: 786-0 renal
SF-539 CNS = system: SF-539 CNS
LOX IMVI melanoma = system: LOX IMVI melanoma
HOP-62 NSCLC = system: HOP-62 NSCLC
A498 renal = system: A498 renal
HL-60(TB) leukemia = system: HL-60(TB) leukemia
K-562 leukemia = system: K-562 leukemia
BT-549 breast = system: BT-549 breast
MOLT-4 leukemia = system: MOLT-4 leukemia
RPMI-8226 leukemia = system: RPMI-8226 leukemia
KM12 colon = system: KM12 colon
OVCAR-8 ovarian = system: OVCAR-8 ovarian
TK-10 renal = system: TK-10 renal
HS 578T breast = system: HS 578T breast
UO-31 renal = system: UO-31 renal

Nc1nc(Cl)nc(NCc2ccccc2)n1
TGI (EKVX NSCLC): > 100 µM
TGI (ACHN renal): > 100 µM
TGI (A549 NSCLC): > 100 µM
TGI (DU-145 prostate): > 100 µM
TGI (CCRF-CEM leukemia): > 100 µM
TGI (MDA-MB-231 breast): > 100 µM
TGI (SR leukemia): > 100 µM
TGI (SK-OV-3 ovarian): > 100 µM
TGI (HCT-116 colon): > 100 µM
TGI (SNB-75 CNS): > 100 µM
TGI (NCI-H460 lung): > 100 µM
TGI (MCF7 breast): > 100 µM
TGI (SW-620 colon): > 100 µM
TGI (IGROV1 ovarian): > 100 µM
TGI (T-47D breast): > 100 µM
TGI (NCI/ADR-RES ovarian): > 100 µM
TGI (SF-295 CNS): > 100 µM
TGI (UACC-62 melanoma): > 100 µM
TGI (RXF 393 renal): > 100 µM
TGI (UACC-257 melanoma): > 100 µM
TGI (U251 CNS): > 100 µM
TGI (SN12C renal): > 100 µM
TGI (MDA-N): > 100 µM
TGI (CAKI-1 renal): > 100 µM
TGI (MALME-3M melanoma): > 100 µM
TGI (SK-MEL-5 melanoma): > 100 µM
TGI (SNB-19 CNS): > 100 µM
TGI (OVCAR-3 ovarian): > 100 µM
TGI (HT29 colon): > 100 µM
TGI (M14 melanoma): > 100 µM
TGI (OVCAR-5 ovarian): > 100 µM
TGI (NCI-H23 lung): > 100 µM
TGI (SF-268 CNS): > 100 µM
TGI (COLO 205 colon): > 100 µM
TGI (HCT-15 colon): > 100 µM
TGI (OVCAR-4 ovarian): > 100 µM
TGI (NCI-H226 lung): > 100 µM
TGI (HCC-2998 colon): > 100 µM
TGI (SK-MEL-28 melanoma): > 100 µM
TGI (HOP-92 NSCLC): > 100 µM
TGI (MDA-MB-435): > 100 µM
TGI (SK-MEL-2 melanoma): > 100 µM
TGI (PC-3 prostate): > 100 µM
TGI (786-0 renal): > 100 µM
TGI (SF-539 CNS): > 100 µM
TGI (LOX IMVI melanoma): > 100 µM
TGI (HOP-62 NSCLC): > 100 µM
TGI (A498 renal): > 100 µM
TGI (HL-60(TB) leukemia): > 100 µM
TGI (K-562 leukemia): > 100 µM
TGI (BT-549 breast): > 100 µM
TGI (MOLT-4 leukemia): > 100 µM
TGI (RPMI-8226 leukemia): > 100 µM
TGI (KM12 colon): > 100 µM
TGI (OVCAR-8 ovarian): > 100 µM
TGI (TK-10 renal): > 100 µM
TGI (HS 578T breast): > 100 µM

O=C(N=Nc1c(O)[nH]c2ccccc12)C(O)(c1ccccc1)c1ccccc1
TGI (EKVX NSCLC): > 100 µM
TGI (ACHN renal): > 100 µM
TGI (A549 NSCLC): 42.1 µM
TGI (DU-145 prostate): 73.9 µM
TGI (CCRF-CEM leukemia): > 100 µM
TGI (MDA-MB-231 breast): 35.5 µM
TGI (SR leukemia): 79.4 µM
TGI (SK-OV-3 ovarian): 56.6 µM
TGI (HCT-116 colon): 37.5 µM
TGI (SNB-75 CNS): 43.6 µM
TGI (NCI-H460 lung): 34.7 µM
TGI (MCF7 breast): 56.4 µM
TGI (SW-620 colon): 34 µM
TGI (IGROV1 ovarian): 39.6 µM
TGI (T-47D breast): 68.8 µM
TGI (NCI/ADR-RES ovarian): 84.6 µM
TGI (SF-295 CNS): 36.3 µM
TGI (UACC-62 melanoma): 30.1 µM
TGI (RXF 393 renal): 28.3 µM
TGI (UACC-257 melanoma): 56.3 µM
TGI (U251 CNS): 35.3 µM
TGI (UO-31 renal): 29.8 µM
TGI (MDA-N): 34 µM
TGI (CAKI-1 renal): > 100 µM
TGI (MALME-3M melanoma): 46.5 µM
TGI (SK-MEL-5 melanoma): 29.7 µM
TGI (SNB-19 CNS): 34.2 µM
TGI (OVCAR-3 ovarian): 36.3 µM
TGI (HT29 colon): 37.2 µM
TGI (M14 melanoma): 30.4 µM
TGI (OVCAR-5 ovarian): 31.5 µM
TGI (NCI-H23 lung): 30.1 µM
TGI (SF-268 CNS): 87.9 µM
TGI (COLO 205 colon): 33.3 µM
TGI (HCT-15 colon): 30.3 µM
TGI (OVCAR-4 ovarian): 50.9 µM
TGI (NCI-H226 lung): 43.8 µM
TGI (HCC-2998 colon): 27.9 µM
TGI (SK-MEL-28 melanoma): 33.9 µM
TGI (HOP-92 NSCLC): 49.7 µM
TGI (MDA-MB-435): 31.8 µM
TGI (SK-MEL-2 melanoma): 31.8 µM
TGI (PC-3 prostate): 38.5 µM
TGI (786-0 renal): > 100 µM
TGI (SF-539 CNS): 29.6 µM
TGI (LOX IMVI melanoma): 31.4 µM
TGI (A498 renal): 36 µM
TGI (HL-60(TB) leukemia): 69 µM
TGI (K-562 leukemia): 89.8 µM
TGI (BT-549 breast): 28.9 µM
TGI (MOLT-4 leukemia): > 100 µM
TGI (RPMI-8226 leukemia): 62 µM
TGI (KM12 colon): 35.4 µM
TGI (OVCAR-8 ovarian): 67.3 µM
TGI (TK-10 renal): 99.3 µM
TGI (HS 578T breast): 66.6 µM
